Where two headings read alike, the source gives them in different places.

One data set has as its system TM4 mouse Sertoli cells. The experiment in a line: Cell growth and viability (MTT), dose-response of the drugs alone. The class given is cell-based. How it is done:
Cells were maintained in standard conditions for 24 h before treatments. […] All azoles were dissolved in DMSO. In an effort to avoid a possible experimental artifact with vehicles, experiments were performed including control groups in which the effect of the drug vehicle alone was tested (vehicle control, vCTR). […] For experiments with N-acetylcysteine (NAC), 24 h after seeding cells were pre-treated for 1 h with the ROS inhibitor (1 mM) and then maintained in co-treatment with azoles for 48 h.
TM4 cells were seeded at a density of 1 × 10^4/cm^2, and cultures incubated at standard conditions in the presence or the absence of azoles to reach final concentrations ranging from 0.078 µM up to 320 µM in culture medium. Cell growth and viability were assessed at 24 and 48 h by Trypan-blue exclusion assay and MTT (3-(4,5-dimethylthiazol-2-yl)-2,5-diphenyl-2H-tetrazolium-bromide) colorimetric method (Sigma-Aldrich, St. Louis, MO, USA), quantifying the metabolic efficiency of living cells.
The Interaction Index (II) was calculated, as previously described, by modifying the Chou and Talalay equation [78]. Specifically, Chou and Talalay’s median-effect method estimates the IC50 and the sigmodicity coefficient m values using linear regression of the linearised dose-response curve.
For a two-drug assay, II is the summation of the ratios of the doses (Dn) of the drugs in combination, and the concentrations of the two drugs alone (IDx,n), to obtain a fraction x of cells affected by drug combinations (Fa). IDx,n is estimated by the following equation:(1) IDx,n=IC50(Fa/1−Fa)^1/mn

The subject of another data set is ΔΨm in TM4 cells. Nature of the data set: Mitochondrial membrane potential (ΔΨm) by JC-1 flow cytometry. The class given is cell-based, mouse. The note with it: 3 h of incubation, JC-1, vs vCTR. How it is done:
Variations of the ΔΨm in samples exposed to azoles for 3 h were assessed using the lipophilic cation dye JC-1, as previously reported. Cells (1 × 10^6 per sample) were stained for 30 min at 37 °C in a humidified atmosphere, with 3 µM JC-1 (Molecular Probes, Eugene, OR, USA) and collected; after washing in PBS, cells were analysed using flow cytometry. To assure a positive control for the abatement of the ΔΨm, the cells were cultured in the presence of […] rotenone (Sigma-Aldrich, St. Louis, MO, USA) for 1 h at standard conditions, and then incubated with the potentiometric dye as described above. Experiments were performed in triplicate and analysed by an FACS Calibur instrument (BD Instruments Inc., San José, CA, USA). The fluorescent signals from JC-1 monomers or aggregates were detected through the FL-1 (525 ± 5 nm) and FL-2 bandpass filters (575 ± 5 nm), respectively; the forward and side scatter channels gated a minimum of 1 × 10^4 cells on the major population of normal-sized cells. ΔΨm data assessment was performed by the Cell Quest software (BD Instruments Inc., San José, CA, USA).

Data set [1] concerns antioxidant enzymes in TM4 cells. The experiment in a line: Antioxidant enzymatic activity assays (SOD, CAT, GPx, GR, GST). The class given is cell-based, mouse. The procedure:
The antioxidant enzymatic activities were performed spectrophotometrically, as previously described. Briefly, after 3 h of incubation with azoles, cells were washed in ice-cold PBS, resuspended in buffer containing 50 mM Tris–HCl (pH 7.4), 1% (v/v) Triton X-100, 1 mM EDTA, and then disrupted by three freeze-thawing cycles. After centrifugation (17,000 g, 10 min, 4 °C), the supernatants were collected for protein quantification and subsequently analysed.
The glutathione reductase (GR) activity was evaluated spectrophotometrically by measuring NADPH oxidation (340 nm at 25 °C). The reaction mix contained 50 mM potassium phosphate buffer (pH 7.0), 1 mM GSSG, 0.2 mM NADPH, 1 mM EDTA, and the adequate protein amount.
Total glutathione peroxidase (GPx) activity (se-dependent and se-independent) of each cell extract was assayed spectrophotometrically by following the NADPH oxidation (340 nm). The assay mixture contained 50 mM potassium phosphate buffer (pH 7.0), 1 mM GSH, 0.01 U/mL GSH reductase, 1 mM EDTA, 0.2 mM NADPH, 70 µM t-BHP, and the adequate amount of the protein extract. The glutathione transferase (GST) activity was evaluated by determining the GSH conjugation rate to 1-chloro-2,4- dinitrobenzene at 340 nm. The reaction mixture was prepared with 0.1 M potassium phosphate buffer (pH 6.5), 2 mM GSH, 1 mM 1-chloro-2,4-dinitrobenzene, and a determined amount of the supernatants.
The catalase (CAT) activity was evaluated, by monitoring at 240 nm its 10-millimolar decomposition. One unit was defined as 1 µmol of H2O2 reduced/min at 25 °C.
The superoxide dismutase (SOD) activity was determined using a colourimetric activity assay (ThermoFisher Scientific—Life Technologies Corp, Carlsband, CA, USA). The assay was conducted according to manufacturer’s instructions; briefly, it measures all types of SOD activity (including Cu/Zn, Mn, and FeSOD). Samples were resuspended in specific coloured diluent and added to a 96-well microplate. […] SOD-specific activity was expressed as U/mg protein, while the specific activity of all the other enzymes analysed was expressed as nmol/min/mg protein.

The test system of another data set is GSH in TM4 cells. Nature of the data set: GSH and GSSG intracellular content (colourimetric assay). The class given is cell-based, mouse. The note with it: 3 h of incubation, vs vCTR. How it is done: GSH and GSSG intracellular contents were detected by using a colourimetric assay (ThermoFisher Scientific—Life Technologies Corp, Carlsband, CA, USA). The analyses were performed according to the manufacturer’s instructions after treatments with azoles at 3 h of incubation; in brief, cell lysates were prepared in ice-cold 5% 5-sulfo-salicylic acid dehydrate (Sigma-Aldrich, St. Louis, MO, USA), and subsequently resuspended in the supplied diluent before adding them into a 96-well microplate. After promptly adding substrate, the reaction with the free thiol group of GSH initiates, producing a highly coloured product. The relative absorbance was detected at 405 nm. Assays were performed at least in triplicate for the GSH and the GSSG content detection. To determine oxidised glutathione content, 2-vinylpyridine (2-VP) (Sigma-Aldrich, St. Louis, MO, USA) was added to block free GSH or other thiols contained in each sample; the specific concentration of the GSSG was determined by performing a 2-VP-treated samples standard curve.

Details of data set [2]: method as in PMID 42148393. To be noted: cattle; cited from earlier work.

For the compound `CCCN(CCOc1c(Cl)cc(Cl)cc1Cl)C(=O)n1ccnc1` [PCZ, prochloraz], in the data set with TM4 mouse Sertoli cells (Mus musculus, TM4, 48 h, read-out: IC20 ± SE), the IC20 is 18.5 ± 3.9 µM. In addition, the IC50 is around 73 µM in the data set on TM4 mouse Sertoli cells (Mus musculus, TM4, 48 h, read-out: IC50 ± SE, TM4 cells, 48 h of exposure, drug alone, 50% fraction of cells affected (Fa), non-linear fitting) and 73.8 ± 15.6 µM with TM4 mouse Sertoli cells (read-out: IC50 ± SE, TM4 cells, 48 h of exposure, drug alone, 50% fraction of cells affected (Fa), non-linear fitting). Moreover, the IC80 with TM4 mouse Sertoli cells (Mus musculus, TM4, 48 h, read-out: IC80 ± SE) worked out at 295 ± 62.3 µM. Moreover, in the data set on ΔΨm in TM4 cells, the “mean intensity of red-orange fluorescence (MFI) of ΔΨm high population” value was “increases in MFI”. In addition, the “SOD/(GPx + CAT) ratio” value in data set [1] (3 h of exposure, vCTR = 0.46 ± 0.067) is on record as 0.0972 ± 0.019. Moreover, in data set [1] (3 h of incubation, vs controls), the GST activity entry was “substantially reduced”. The “GR/(GPx + GST) ratio” value in data set [1] (3 h of incubation, vs vCTR) is “positive and significant shift”. For the same compound, the “intracellular GSH content” value with GSH in TM4 cells is listed as “only a slight decrease”. In addition, the “residues in edible tissues (moderate bioaccumulation)” value in data set [2] is at least 0.01 mg/kg.
